Laboratory results reported in PMC7902631, “An ESCRT-dependent step in fatty acid transfer from lipid droplets to mitochondria through VPS13D−TSG101 interactions” (Nature Communications, 2021).
One block for each compound: values may come before it.

Experiments:
VAB-ΔPSAP-GFP (human) = assay: co-IP; GFP-Trap agarose beads (ChromoTek) on lysates of HEK293 cells, by the manufacturer's protocol; GFP-tagged protein held, partner detected by western blot (anti-TSG101 or anti-Halo); 5% input
VPS13D-LTD [1] = target: T1, VPS13D-LTD (Homo sapiens, UniProt Q5THJ4); assay: competition with BODIPY-C16, native PAGE; type: binding; settings: unlabeled, non-BSA-conjugated palmitic acid; competitor of BODIPY-C16
T1 construct: lipid transfer domain, residues 1-320; pET28a-6xHis-SUMO fusion, tag cleavage not mentioned; expressed in E. coli (DE3), Ni-NTA purified
T1 sequence (Q5THJ4 1-320): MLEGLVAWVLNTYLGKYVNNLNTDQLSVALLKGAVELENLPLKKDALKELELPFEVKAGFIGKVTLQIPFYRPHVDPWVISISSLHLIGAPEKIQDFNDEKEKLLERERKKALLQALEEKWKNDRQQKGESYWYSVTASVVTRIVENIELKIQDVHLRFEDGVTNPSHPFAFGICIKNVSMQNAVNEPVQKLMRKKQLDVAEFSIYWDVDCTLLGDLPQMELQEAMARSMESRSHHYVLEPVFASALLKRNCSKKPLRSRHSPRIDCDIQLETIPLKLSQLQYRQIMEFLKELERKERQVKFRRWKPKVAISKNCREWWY

VPS13D-LTD [2] = target: T1, VPS13D-LTD; assay: native PAGE co-migration, fluorescence; type: binding; settings: labelled compound; 4 °C, 3 h; 1.5 mg/ml protein

reduction of the interaction against VAB-GFP (VAB-ΔPSAP-GFP (human)): 60%
Compound: Halo-TSG101 (from UniProt Q99816 1-390) (natural protein)

Compound: CCCCCCCCCCCCCCCC(=O)O [palmitic acid]
competition with BODIPY-C16, native PAGE (VPS13D-LTD [1]): palmitic acid, but not OA, could sufficiently outcompete BODIPY-C16 for binding to VPS13D-LTD

Compound: O=C(O)CCCCCCCCCCCNc1ccc([N+](=O)[O-])c2nonc12 [C12, NBD-C12]
native PAGE co-migration, fluorescence (VPS13D-LTD [2]): purified VPS13D-LTD could bind NBD-labeled fatty acids C12 (NBD-C12)
